The experiment has as its target T1, papain (Carica papaya, UniProt P00784).
T1 sequence (P00784 134-345): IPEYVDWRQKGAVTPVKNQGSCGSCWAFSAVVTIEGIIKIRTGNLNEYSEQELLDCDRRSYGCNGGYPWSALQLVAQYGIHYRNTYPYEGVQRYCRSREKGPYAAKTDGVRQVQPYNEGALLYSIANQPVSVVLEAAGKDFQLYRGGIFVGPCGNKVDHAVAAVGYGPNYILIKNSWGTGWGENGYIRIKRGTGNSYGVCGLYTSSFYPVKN
As to the kind of experiment: chromogenic protease assay (BAPNA, […] nm) after […] min preincubation of DTT-reduced papain with compound. It counts as biochemical.

Read-outs that look alike come from different tables or passages of the source.

As a reminder, the IC50 is the concentration needed to halve the response being measured. On to `C=CCS[S+]([O-])CC=C` (stereo not drawn) [compound 1, allicin], for which the IC50 stood at 1.2 ± 0.2 µM.
For `[O-][S+](Cc1ccccc1)SCc1ccccc1` (stereo not drawn) [compound 2, petivericin], the IC50 (read-out: IC50) turned out to be 1.1 ± 0.1 µM.
Same read-out and setting: to `CCCCCCc1ccc(CS[S+]([O-])Cc2ccc(CCCCCC)cc2)cc1` (stereo not drawn) [compound 4, hexylated petivericin] belongs 1 ± 0.1 µM.
